From ChEMBL document CHEMBL4376881, “Toggling Preassembly with Single-Site Mutation Switches the Cytotoxic Mechanism of Cationic Amphipathic Peptides” (J Med Chem, 2020) come the findings set out here.

In series [1] the test system is HeLa. Nature of the series: Induction of apoptosis in human HeLa cells assessed as increase in caspase 3/7 activity at cytotoxic IC50 level using Ac-DEVD- pNA substrate incubated for 15 to 60 mins. In kind it is functional, cell-based.
Series [2] relates to MCF7. Nature of the series: Cytotoxicity against human MCF7 cells assessed as reduction in cell viability incubated for 1 hr by MTT assay. It counts as functional, cell-based. The settings on record: MCF7, 1 h. Background: Tetrazolium assays rely on reduction of a dye to a coloured formazan, in cell work by metabolically active cells.
The nature of series [3]: Self aggregation up to 128 uM in PBS buffer by ANS fluorescent probe based aggregate incorporation assay. It counts as physicochemical.
A short description of series [4]: Selectivity index, ratio of HC10 for induction of hemolysis in human erythrocytes assessed as hemoglobin release incubated for 2 hrs by UV absorbance based method to IC50 for cytotoxicity against human K562 cells assessed as reduction in cell viability incubated for 1 hr by MTT assay.
For series [5], the system named is HL-60. The series can be described thus: Cytotoxicity against human HL60 cells assessed as reduction in cell viability incubated for 1 hr by MTT assay. It counts as functional, cell-based. The settings on record: HL-60, 1 h.
A short description of series [6]: Drug localization in lysosome of human HeLa cells using FITC-labeled compound at cytotoxic IC50 level incubated for 30 mins by Lysotracker red dye based confocal laser scanning microscopy. In kind it is subcellular. The settings on record: 0.5 h.
Series [7] is described as follows: Selectivity index, ratio of HC10 for induction of hemolysis in human erythrocytes assessed as hemoglobin release incubated for 2 hrs by UV absorbance based method to IC50 for cytotoxicity against human MCF7 cells assessed as reduction in cell viability incubated for 1 hr by MTT assay.
A short description of series [8]: Drug localization in mitochondria of human HeLa cells using FITC-labeled compound at cytotoxic IC50 level incubated for 30 mins by Mito-tracker red dye based confocal laser scanning microscopy. The settings on record: 0.5 h.
The subject of series [9] is HeLa. The series can be described thus: Induction of membrane lysis in human HeLa cells assessed as increase in number of enlarged outward budding vesicles at cytotoxic IC50 level incubated for 15 mins by annexin V-FITC and by propidium iodide staining. In kind it is functional, cell-based.
The subject of series [10] is K562. The series can be described thus: Cytotoxicity against human K562 cells assessed as reduction in cell viability incubated for 1 hr by MTT assay. In kind it is functional, cell-based. The settings on record: K562, 1 h.
Series [11] has as its system HeLa. The series can be described thus: Cytotoxicity against human HeLa cells assessed as reduction in cell viability incubated for 1 hr by MTT assay. In kind it is functional, cell-based.
The subject of series [12] is HeLa. Nature of the series: Induction of membrane lysis in human HeLa cells assessed as loss of membrane integrity at cytotoxic IC50 level incubated for 15 mins by Propidium iodide staining based confocal laser scanning microscopy relative to control. It counts as functional.
The test system of series [13] is HeLa. The series can be described thus: Suppression of mitochondrial membrane potential in human HeLa cells at cytotoxic IC50 level incubated for 15 mins by rhodamine 123 dye based flow cytometry. It counts as functional, cell-based. In general terms: In flow cytometry, cells or beads pass a laser one at a time.
The nature of series [14]: Drug localization in nucleoli of human HeLa cells using FITC-labeled compound at cytotoxic IC50 level incubated for 30 mins by confocal laser scanning microscopy. It counts as subcellular. The settings on record: 0.5 h.
A short description of series [15]: Self aggregation assessed as formation of nano fibers of varying lengths at 32 uM by atomic force microscopy. In kind it is physicochemical.
Series [16] relates to HeLa. The series can be described thus: Cytotoxicity against human HeLa cells assessed as reduction in cell viability at 4 degC at 1 to 16 uM incubated for 1 hr by MTT assay. It counts as functional, cell-based.
A short description of series [17]: Induction of hemolysis in human erythrocytes assessed as hemoglobin release incubated for 2 hrs by UV absorbance based method. It counts as cell-based. The settings on record: erythrocyte.
Series [18] relates to HeLa. Nature of the series: Induction of oxidative stress in human HeLa cells assessed as increase in reactive oxygen species at cytotoxic IC50 level incubated for 15 mins by CellROX deep red reagent based flow cytometry. It counts as functional, cell-based.
Series [19] in a line: Drug localization in endoplasmic reticulum of human HeLa cells using FITC-labeled compound at cytotoxic IC50 level incubated for 30 mins by ER-tracker red dye based confocal laser scanning microscopy. In kind it is subcellular. The settings on record: 0.5 h.
Series [20] is described as follows: Selectivity index, ratio of HC10 for induction of hemolysis in human erythrocytes assessed as hemoglobin release incubated for 2 hrs by UV absorbance based method to IC50 for cytotoxicity against human HeLa cells assessed as reduction in cell viability incubated for 1 hr by MTT assay.
In series [21] the test system is A549. The series can be described thus: Cytotoxicity against human A549 cells assessed as reduction in cell viability incubated for 1 hr by MTT assay. In kind it is functional, cell-based. The settings on record: A549, 1 h.
Series [22] in a line: Selectivity index, ratio of HC10 for induction of hemolysis in human erythrocytes assessed as hemoglobin release incubated for 2 hrs by UV absorbance based method to IC50 for cytotoxicity against human HL60 cells assessed as reduction in cell viability incubated for 1 hr by MTT assay.
Series [23] in a line: Selectivity index, ratio of HC10 for induction of hemolysis in human erythrocytes assessed as hemoglobin release incubated for 2 hrs by UV absorbance based method to IC50 for cytotoxicity against human A549 cells assessed as reduction in cell viability incubated for 1 hr by MTT assay.
A short description of series [24]: Drug localization in cell membrane of human HeLa cells using FITC-labeled compound at cytotoxic IC50 level incubated for 30 mins by confocal laser scanning microscopy. It counts as cell membranes. The settings on record: 0.5 h.
For series [25], the system named is HeLa. Nature of the series: Cytotoxicity against human HeLa cells assessed as reduction in cell viability at cytotoxic IC50 in presence of 1.5 to 150 ng/mL sodium heparin incubated for 1 hr by MTT assay. In kind it is functional, cell-based.
Series [26] can be described thus: Self aggregation at >8 uM in PBS buffer by ANS fluorescent probe based aggregate incorporation assay. It counts as physicochemical.

The source made the active and inactive calls. The calls are words filed in the database; no cut-off is given here. Some results are limits rather than exact numbers.

Usually IC50 stands for the concentration at which inhibition is half-maximal. For H-KELKLLKKLLKLLK-OH, the outcome in series [1], in [13] and in series [18] was Active. The IC50 was found to be 14.5 µM in [2]; 3.3 µM in [5]; 2.4 µM in series [10]; 6.8 µM in series [11]; 13.5 µM in [21]. Besides, the Activity result in [3] and in [15] was “Not Active” each time. The “Selectivity Index” value is recorded as 25.7 in series [4]; 4.25 in series [7]; 9.13 in series [20]; 18.7 in series [22]; 4.58 in series [23]. The Drug uptake entry in series [6], in series [8], in [14] and in series [19] was “Active” each time. In addition, the outcome in [9], in series [12] and in [16] was inactive. The HC10 in series [17] is 61.7 µM.

On to H-KKLKLLKKLLKLLK-OH, for which the IC50 was 6.2 µM in series [2]; 1.7 µM in series [5]; 1.3 µM in series [10]; 3.4 µM in series [11]; 3.5 µM in series [21]. Besides, the Activity result in series [3] is listed as “Not Active”. Moreover, the “Selectivity Index” value worked out at 15 in series [4]; 3.14 in series [7]; 5.74 in series [20]; 11.5 in [22]; 5.53 in series [23]. The outcome in series [12] was inactive. Also, the HC10 in [17] was 19.5 µM.

On to H-KLEKLLKKLLKLLK-OH, for which the Activity entry in series [3] was “Not Active”. In addition, in series [11], the IC50 is 6.1 µM. The result in series [12] was inactive.

Regarding H-KLLELLKKLLKLLK-OH, the outcome in series [3] was Active. Further, the IC50 in series [11] was determined as 5.3 µM. The result in [12] was Active.

On to H-KLLKELKKLLKLLK-OH, for which the Activity entry in series [3] is “Not Active”. For the same substance, the IC50 in series [11] is 8.6 µM. Besides, the result in series [12] was inactive.

Turning to H-KLLKLEKKLLKLLK-OH, the Activity result in series [3] is recorded as “Not Active”. In addition, the IC50 in [11] is over 64 µM.

Take H-KLLKLLKKELKLLK-OH: the Activity entry in series [3] is “Not Active”. The IC50 in [11] is over 64 µM.

For the substance H-KLLKLLKKLEKLLK-OH, the Activity entry in series [3] is “Not Active”. Further, the IC50 in [11] was determined as 11.2 µM. In addition, the result in series [12] was inactive.

As to H-KLLKLLKKLLKELK-OH, the Activity entry in [3] is recorded as “Not Active”. The IC50 in series [11] stood at 5.1 µM. Besides, the result in [12] was inactive.

Turning to H-KLLKLLKKLLKLEK-OH, in series [3], the Activity result is on record as “Not Active”. Further, the IC50 in [11] is 21.8 µM. Moreover, the result in series [12] was inactive.

Consider H-KLLKLLKKLLKLLK-OH, for which the Drug uptake entry in series [24] is “Active”. Further, the 50% inhibitory concentration (IC50) in series [2] was 4.3 µM; in [5], 2.5 µM; in series [10], 1.4 µM; in series [11], 4.6 µM; in series [21] it was 3.7 µM. For the same substance, the “Selectivity Index” value in [4] worked out at 0.37; in series [7], 0.12; in series [20], 0.11; in series [22] it was 0.21; in series [23] it was 0.14. Moreover, the outcome in series [25] and in [9] was Active. The Activity result was “Dose-dependent effect” in series [26], 50% in series [12] and “Active” in [15]. For the same substance, in [17], the HC10 was 0.52 µM.

Consider H-KQLKLLKKLLKLLK-OH, for which the IC50 in [2] amounted to 9 µM; in series [5], 2 µM; in series [10], 1.8 µM; in series [11] it was 5.2 µM; in series [21], 6.3 µM. In addition, in series [3], the Activity entry is reported as “Not Active”. For the same substance, the “Selectivity Index” value in series [4] was 19.7; in series [7] it was 3.95; in series [20], 6.77; in series [22], 17.8; in [23] it was 5.59. Also, the result in series [12] was inactive. Moreover, the HC10 in series [17] stood at 35.5 µM.
